The target of experiment [1] is T1, LIM domain kinase 1 (Homo sapiens, UniProt P53667). In words: Inhibition of LIMK1 (unknown origin) using cofilin-2 as substrate at 30 uM after 60 mins by Kinase-Glo assay relative to control. On the technique in general: Kinase-Glo reads ATP consumption through a luciferase reaction.
Target sequence in this assay (P53667 whole entry, looked up, the tested form may be a part): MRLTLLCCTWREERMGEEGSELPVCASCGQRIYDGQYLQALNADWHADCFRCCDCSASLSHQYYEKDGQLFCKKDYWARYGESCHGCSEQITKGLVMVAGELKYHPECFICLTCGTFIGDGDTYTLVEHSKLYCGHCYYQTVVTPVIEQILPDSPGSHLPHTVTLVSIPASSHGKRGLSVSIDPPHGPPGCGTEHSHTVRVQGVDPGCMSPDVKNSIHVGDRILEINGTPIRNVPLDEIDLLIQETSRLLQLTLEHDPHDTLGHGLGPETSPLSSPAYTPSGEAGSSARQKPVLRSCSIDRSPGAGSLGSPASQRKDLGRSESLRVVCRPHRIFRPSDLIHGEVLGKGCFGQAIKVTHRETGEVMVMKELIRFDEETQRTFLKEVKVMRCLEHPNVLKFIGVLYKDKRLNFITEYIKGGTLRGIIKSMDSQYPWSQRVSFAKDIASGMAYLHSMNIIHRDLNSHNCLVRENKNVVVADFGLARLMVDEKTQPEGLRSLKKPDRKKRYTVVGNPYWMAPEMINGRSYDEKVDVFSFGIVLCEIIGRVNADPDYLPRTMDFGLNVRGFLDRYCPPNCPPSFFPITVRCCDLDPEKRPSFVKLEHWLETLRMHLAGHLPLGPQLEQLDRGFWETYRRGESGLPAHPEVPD
Experiment [2] has as its target T1, LIM domain kinase 1. Kind of experiment: Inhibition of LIMK1 (unknown origin) using cofilin-2 as substrate after 60 mins by Kinase-Glo assay.
Target sequence in this assay (P53667 whole entry, the tested form may be a part): as the sequence (P53667 whole entry, looked up, the tested form may be a part) above

For orientation: inhibition means the percentage by which the read-out fell short of the control. For orientation: IC50 means the concentration that inhibits the measured activity by half.

Regarding `NC(=O)c1sc2ncccc2c1N`, the inhibition in experiment [1] amounted to 40%.

In the case of `Cc1cc(-c2ccc(Cl)cc2)c2c(N)c(C(N)=O)sc2n1`, the IC50 in experiment [2] amounted to 37 µM.

Take `Cc1cc(C)c2c(N)c(C(N)=O)sc2n1`: the IC50 in experiment [2] is 9 µM.

`Nc1c(C(=O)N2CCOCC2)sc2ncccc12`: the inhibition in experiment [1] came out at 0%.

For the compound `NC(=O)c1sc2ccccc2c1O`, the IC50 in experiment [2] is > 100 µM.

On to `NC(=O)c1cc2ccccc2s1`, for which the 50% inhibitory concentration (IC50) in experiment [2] was > 100 µM.

`NC(=O)c1sc2nc3c(c(-c4cccs4)c2c1N)CCC3`: the inhibition in experiment [1] turned out to be 50%.

Consider `NC(=O)c1sc2cccnc2c1N`, for which it took 92 µM to reach half-maximal inhibition in experiment [2] (IC50).

Consider `NC(=O)c1sc2nccc(Nc3ccccc3)c2c1N`, for which the inhibition in experiment [1] came to 98%.

`NNC(=O)c1sc2ncccc2c1N`: the 50% inhibitory concentration (IC50) in experiment [2] was > 100 µM.

As to `CCOC(=O)c1sc2ccccc2c1N`, the IC50 in experiment [2] is > 100 µM.

Consider `Nc1ncnc2c1oc1ccccc12`, for which 15 µM corresponded to half-maximal inhibition in experiment [2] (IC50).

For the compound `CN(C)c1ccnc2sc(C(N)=O)c(N)c12`, in experiment [1], the inhibition came out at 67%.

Regarding `Cc1ccnc2sc(C(N)=O)c(N)c12`, the inhibition in experiment [1] worked out at 79%. For the same compound, in experiment [2], inhibition was half-maximal at 11 µM (IC50).

Take `Nc1c(C(=O)O)sc2ncccc12`: the 50% inhibitory concentration (IC50) in experiment [2] was > 100 µM.

The compound `Nc1ncnc2c1sc1nc(-c3ccccc3)ccc12` registered a half-inhibitory concentration (IC50) in experiment [2] of 0.7 µM.

In experiment [2], `CNc1c(C(N)=O)sc2ccccc12` displayed an IC50 of 34 µM.

In experiment [2], `NC(=O)c1sc2nc(-c3ccccc3)ccc2c1N` displayed an IC50 of 3 µM.

Take `Nc1c(C(=O)Nc2ccccc2)sc2ncccc12`: the inhibition in experiment [1] came to 15%.

Compound `NC(=O)c1sc2nc(-c3ccccc3)cc(-c3ccco3)c2c1N` had a half-inhibitory concentration (IC50) in experiment [2] of 2 µM.

`NC(=O)c1sc2nc(-c3cccs3)cc(C(F)(F)F)c2c1N` registered a 50% inhibitory concentration (IC50) in experiment [2] of 1.6 µM.

Compound `NC(=O)c1sc2nc(-c3cccnc3)ccc2c1N` came in with a half-inhibitory concentration (IC50) in experiment [2] of 7.1 µM.

Take `NC(=O)c1sc2nc(-c3ccccc3)c3c(c2c1N)CCCC3`: half-maximal inhibition in experiment [2] (IC50) required 2.8 µM.

In turn, `Nc1ncnc2c1sc1cccc(-c3ccccc3)c12` showed an IC50 in experiment [2] of 5.5 µM.

In experiment [2], `Nc1ncnc2c1sc1ccc(-c3ccccc3)cc12` returned an IC50 of 5.7 µM.

As to `Cc1ccc2c(N)c(C(N)=O)sc2n1`, in experiment [2], the midpoint of inhibition, the IC50, lay at 56 µM.

Take `Nc1c(C(=O)Nc2ccccc2)sc2nccc(Nc3ccccc3)c12`: the inhibition in experiment [1] is 0%.

Regarding `NC(=O)c1oc2ccccc2c1N`, the IC50 in experiment [2] was > 100 µM.

In the case of `NC(=O)c1sc2nc(Cc3ccccc3)cc(C(F)(F)F)c2c1N`, the 50% inhibitory concentration (IC50) in experiment [2] was 30 µM.

In the case of `NC(=O)c1sc2ncc3c(c2c1N)CCCC3`, the inhibition in experiment [1] amounted to 16%.

As to `CNC(=O)c1sc2ncccc2c1N`, in experiment [2], the IC50 was > 100 µM.

Regarding `Nc1c(C(=O)O)sc2ccccc12`, the IC50 in experiment [2] is > 100 µM.

In the case of `Nc1ncnc2c1sc1cccnc12`, the IC50 in experiment [2] came out at 43 µM.

As to `Nc1nc(-c2ccccc2)nc2c1sc1ncccc12`, the IC50 in experiment [2] is > 50 µM.

In the case of `CN(C)C(=O)c1sc2ncccc2c1N`, the IC50 in experiment [2] was > 100 µM.

Regarding `COc1ccc(-c2cc(-c3ccccc3)nc3sc(C(N)=O)c(N)c23)cc1`, the 50% inhibitory concentration (IC50) in experiment [2] was determined as 44 µM.

Compound `Nc1c(C(=O)NC2CCCCC2)sc2ncccc12` came in with an inhibition in experiment [1] of 2%.

Take `Nc1ncnc2c1sc1nccnc12`: in experiment [2], the IC50 was > 100 µM.

Regarding `Cc1nc(N)c2sc3ncccc3c2n1`, the concentration for half-maximal inhibition (IC50) in experiment [2] was found to be 43 µM.

In experiment [2], `NC(=O)c1sc2nc(-c3ccc4c(c3)OCCO4)cc(C(F)(F)F)c2c1N` registered an IC50 of 1.3 µM.

`Nc1ncnc2c1sc1c(-c3ccccc3)cccc12` gave a half-maximal inhibitory concentration (IC50) in experiment [2] of 6.1 µM.

For `Cc1ccc(-c2cc(C(F)(F)F)c3c(N)c(C(N)=O)sc3n2)o1`, in experiment [2], the concentration for half-maximal inhibition (IC50) came out at 41 µM.

`Nc1ncnc2c1[nH]c1ccccc12` had an IC50 in experiment [2] of 4 µM.
